The record followed here is patent US5532259A, “Isoxazole-4-carboxamides and hydroxyalkylidenecyanoacetamides, pharmaceuticals containing these compounds and their use” (Hoechst Aktiengesellschaft, priority 1990, dated 1996).

Data set [1] deals with A20 2J mouse B cell tumor (BALB/c). As to the kind of experiment: Cell proliferation test, A20 2J. The format is cell-based. Particulars: 72 h, read-out: ED50 (concentration at which a 50% inhibition occurs). Here is the method: (§1) The cell culture in vitro proliferation test was used as an activity test for chemotherapeutics.
(§2) Clicks/RPMI 1640 medium (50:50) containing L-glutamine without any NaHCO3, in the form of powder for 10 1 (Seromed, Biochrom, Berlin, FRG) is dissolved in 9 l of double-distilled water, and sterile filtered into 900 ml bottles.
(§3) 900 ml of base medium are buffered using 9.5 ml of 7.5% strength sodium hydrogencarbonate solution and 5 ml of HEPES (N-2-hydroxyethyl-piperazine-N-2 ethanesulfonic acid) (Gibco, Eggenstein, FRG).
(§4) 900 ml of base medium plus 19 ml of NaHCO3 solution (7.5%; 10 ml of HEPES solution and 10 ml of L-glutamine solution (200 mM)).
(§5) For keeping the tumor cells and hybridoma cells, working medium containing 5% FCS is prepared. […]
(§6) The proliferation test was carried out in round bottom microtiter plates. […] In all tests, the values were determined four times. […] The value of the negative control was subtracted from all values determined and the difference of positive control minus negative control was set at 100%.
(§7) The plates were incubated at 37° C./5% CO2 for 72 h and the proliferation rate was determined correspondingly as with the mitogen-induced lymphocyte proliferation. […]

The subject of data set [2] is Cl 9/4 mouse T cell line (IL-4 dep.). As to the kind of experiment: Cell proliferation test, Cl 9/4. The format is cell-based. To be noted: 72 h, read-out: ED50 (concentration at which a 50% inhibition occurs). Here is the method: as §1, §2, §3, §4, §5, §6, §7
Data set [3] deals with Spleen B (LPS). As to the kind of experiment: Mitogen-induced lymphocyte proliferation, Spleen B. It counts as cell-based. Particulars: Mus musculus, B-cell, 64 h, 48 h + 16 h with tritium thymidine, read-out: ED50 (concentration at which a 50% inhibition occurs). As to the method:
as §1, §2, §3, §4
(§8) Medium for mitogen-induced lymphocyte proliferation. Working medium containing 1% heat-inactivated (30 min, 56° C.) fetal calf serum (FCS) is prepared.
(§9) The mice are sacrificed by cervical dislocation and the spleens are removed under sterile conditions. The spleens are shredded on a sterile sieve having a mesh width of 80 "mesh" and are carefully transferred to a Petri dish containing working medium using the plunger of a plastic syringe (10 ml). […]
(§10) The group with mitogen additions and without preparation were defined as positive controls. […] The amount of radioactivity incorporated by these cells is measured in a beta counter (Packard, Tricarb 460c).

A short description of data set [4]: Acute toxicity on oral administration, rat. To be noted: in vivo, SD rat, 3 weeks, Litchfield and Wilcoxon. Here is the method:
(§11) Acute toxicity on oral administration
(§12) Compound 1 was administered orally to the mice or rats to determine the acute toxicity.
(§13) The LD50 values were determined according to Litchfield and Wilcoxon.
(§14) The weight of the NMRI mice (NMRI : Naval Medical Research Institute) is 20 to 25 g and that of the SD rats (SD: Sprague-Dawley) is 120 to 165 g. The mice were fasted for about 18 hours before the test. They are fed normally again 5 hours after administration of the substances tested. After 3 weeks, the animals were sacrificed by means of chloroform and dissected. 6 animals are used per dose.

For data set [5], the system named is A431 human epidermoid carcinoma. The experiment in a line: Cell proliferation test, A431. The format is cell-based. To be noted: A-431, 72 h, read-out: ED50 (concentration at which a 50% inhibition occurs). As to the method: as §1, §2, §3, §4, §5, §6, §7
Data set [6] has as its system KB human epidermoid carcinoma. The experiment in a line: Cell proliferation test, KB. It counts as cell-based. Particulars: 72 h, read-out: ED50 (concentration at which a 50% inhibition occurs). Here is the method:
as §1, §2, §3, §4, §5, §6, §7

The subject of data set [7] is TRK 4 mouse B cell hybridoma. The experiment in a line: Cell proliferation test, TRK 4. The format is cell-based. To be noted: 72 h, read-out: ED50 (concentration at which a 50% inhibition occurs). As to the method: as §1, §2, §3, §4, §5, §6, §7
The test system of data set [8] is PB-3C mouse mast cell line (IL-3). The experiment in a line: Cell proliferation test, PB-3C. The format is cell-based. To be noted: 72 h, read-out: ED50 (concentration at which a 50% inhibition occurs). Here is the method: as §1, §2, §3, §4, §5, §6, §7
For data set [9], the system named is P 388 D1 mouse Mo tumor. As to the kind of experiment: Cell proliferation test, P 388 D1. It counts as cell-based. Particulars: P388D1, 72 h, read-out: ED50 (concentration at which a 50% inhibition occurs). Here is the method:
as §1, §2, §3, §4, §5, §6, §7

For data set [10], the system named is K III 5 mouse T cell line (Th, IL-2). The experiment in a line: Cell proliferation test, K III 5. The format is cell-based. To be noted: 72 h, read-out: ED50 (concentration at which a 50% inhibition occurs). Here is the method: as §1, §2, §3, §4, §5, §6, §7
For data set [11], the system named is WEHI 279 mouse B cell lymphoma. The experiment in a line: Cell proliferation test, WEHI 279. The format is cell-based. To be noted: 72 h, read-out: ED50 (concentration at which a 50% inhibition occurs). As to the method: as §1, §2, §3, §4, §5, §6, §7
The test system of data set [12] is CTL-J-K mouse T cell line (Tc, IL-2). As to the kind of experiment: Cell proliferation test, CTL-J-K. It counts as cell-based. Particulars: 72 h, read-out: ED50 (concentration at which a 50% inhibition occurs). Here is the method: as §1, §2, §3, §4, §5, §6, §7
Data set [13] has as its system DA-1 mouse tumor (IL-3). The experiment in a line: Cell proliferation test, DA-1. It counts as cell-based. Particulars: 72 h, read-out: ED50 (concentration at which a 50% inhibition occurs). As to the method: as §1, §2, §3, §4, §5, §6, §7
The test system of data set [14] is HFF human foreskin fibroblast. As to the kind of experiment: Cell proliferation test, HFF. The format is cell-based. To be noted: 72 h, read-out: ED50 (concentration at which a 50% inhibition occurs). As to the method: as §1, §2, §3, §4, §5, §6, §7
Data set [15] relates to TRK 5 mouse B cell hybridoma. The experiment in a line: Cell proliferation test, TRK 5. It counts as cell-based. To be noted: 72 h, read-out: ED50 (concentration at which a 50% inhibition occurs). As to the method:
as §1, §2, §3, §4, §5, §6, §7

In data set [16] the test system is 7D4 rat hybridoma. The experiment in a line: Cell proliferation test, 7D4. It counts as cell-based. Particulars: 72 h, read-out: ED50 (concentration at which a 50% inhibition occurs). As to the method:
as §1, §2, §3, §4, §5, §6, §7

Data set [17] has as its system CTLL mouse T cell line (Tc clone IL-2). As to the kind of experiment: Cell proliferation test, CTLL. To be noted: 72 h, read-out: ED50 (concentration at which a 50% inhibition occurs). It counts as cell-based. As to the method:
as §1, §2, §3, §4, §5, §6, §7

In data set [18] the test system is Spleen T (con A and PWM). The experiment in a line: Mitogen-induced lymphocyte proliferation, Spleen T. The format is cell-based. Particulars: Mus musculus, T-cell, 64 h, 48 h + 16 h with tritium thymidine, read-out: ED50 (concentration at which a 50% inhibition occurs). Here is the method: as §1, §2, §3, §4, §8, §9, §10
A short description of data set [19]: Acute toxicity on oral administration, mouse. Particulars: in vivo, NMRI mouse, 3 weeks, Litchfield and Wilcoxon. As to the method:
as §11, §12, §13, §14

The subject of data set [20] is Bone marrow mouse (M-CSF, GM CSF). As to the kind of experiment: Cell proliferation test, bone marrow. Particulars: 72 h, read-out: ED50 (concentration at which a 50% inhibition occurs). It counts as cell-based. Here is the method: as §1, §2, §3, §4, §5, §6, §7
The subject of data set [21] is 7TD1 mouse B cell hybridoma (IL-6). As to the kind of experiment: Cell proliferation test, 7TD1. The format is cell-based. To be noted: 72 h, read-out: ED50 (concentration at which a 50% inhibition occurs). Here is the method:
as §1, §2, §3, §4, §5, §6, §7

Data set [22] concerns HT-2 mouse T cell line (IL-2). The experiment in a line: Cell proliferation test, HT-2. To be noted: 72 h, read-out: ED50 (concentration at which a 50% inhibition occurs). The format is cell-based. Here is the method:
as §1, §2, §3, §4, §5, §6, §7

The subject of data set [23] is HL-60 human promyelomonocytic leukemia. The experiment in a line: Cell proliferation test, HL-60. To be noted: 72 h, read-out: ED50 (concentration at which a 50% inhibition occurs). It counts as cell-based. Here is the method:
as §1, §2, §3, §4, §5, §6, §7

Data set [24] is described as follows: Acute toxicity after intraperitoneal administration, mouse. Particulars: in vivo, ip, NMRI mouse, 3 weeks, Litchfield and Wilcoxon. As to the method:
Acute toxicity after intraperitoneal administration
The acute toxicity after intraperitoneal administration of the test substances was carried out using NMRI mice (20 to 25 g) and SD rats (120 to 195 g). The test substance was suspended in a 1% strength sodium carboxymethyl cellulose solution. The various doses of the test substance were administered to the mice in a volume of 10 ml/kg of body weight and to the rats in a volume of 5 ml/kg of body weight. 10 animals were used per dose. After 3 weeks, the acute toxicity was determined according to the method of Litchfield and Wilcoxon.

Regarding `Cc1oncc1C(=O)Nc1ccc(C(F)(F)F)cc1` [Compound 1, 5-methylisoxazole-4-carboxylic acid (4-trifluoromethyl)anilide], the IC50 in data set [1] is 1 to 3 µM; in [2], 25 µM; in data set [3] it was 10 µM; in [5], 15 µM; in data set [6] it was 15 µM; in data set [7], 5 µM. The IC50 in data set [8] is 20 µM; in [9] it was 10 µM; in [10] it was 1 to 3 µM; in data set [11] it was no more than 1 µM; in data set [12], 40 to 50 µM; in data set [13], 5 µM. The IC50 in [14] is 40 µM; in data set [15] it was 5 µM; in data set [16], no more than 1 µM; in [17], 40 to 50 µM; in data set [18] it was 10 µM; in [20], 5 µM. Also, the IC50 in data set [21] was 10 µM; in data set [22] it was 40 to 50 µM; in data set [23], 25 µM. The median lethal dose (LD50) at 504 h in data set [4] was determined as 235 mg/kg; in data set [19], 445 mg/kg.

For the compound `C/C(O)=C(\C#N)C(=O)Nc1ccc(C(F)(F)F)cc1` [Compound 2, N-(4-trifluoromethylphenyl)-2-cyano-3-hydroxycrotonamide], the results for the LD50 at 504 h in [24] and in data set [4] were 100 to 200 mg/kg and 160 mg/kg, respectively.
